Columns and labels:
[1] = acting as serotonin-S2 and α1-adrenoceptor antagonist, respectively; cited from earlier work
α1-Adrenergic receptor = α1-Adrenergic receptor binding, [^3 H] prazosin, rat brain cortex membranes; conditions: 0.2 nM [^3 H] prazocin, pH 7.4, 30 min, room temperature
Experimental: (§1) After the removal of nuclei by centrifugation at 1000×g for 10 min, P2 membranes were pelleted by centrifuging the supernatant at 22,000×g for 20 min. After two periods of centrifugation at 22,000×g and resuspension in fresh buffer, the membrane suspension (about 2 mg/ml protein) was ready for use. α1 -Adrenergic receptor binding assays (in triplicate) were carried out with 0.2 nM [^3 H] prazocin in a final volume of 1.0 ml of Tris buffer at pH 7.4 for 30 min at room temperature, using 10 μM phentolamine to determine non-specific binding. The concentrations of synthetic compounds for competition binding were in the range of 0.1-200 nM. α2 -adrenergic receptor binding assays (in triplicate) were carried out with 1 nM [^3 H] clonidine in the presence of 10 mM MgCl2 and in a final volume of 1.0 ml of Tris buffer at pH 7.4 for 30 min at room temperature, using 10 μM clonidine to determine non-specific binding. The concentrations of synthetic compounds for competition binding were in the range of 0.1-100 μM. […] The amount of membrane protein used in each assay was in the range of 300-400 μg, as determined by the method of Lowry et al. The results are given in Table 2. […] All other chemicals used were reagent grade and were purchased from Sigma (St. Louis, Mo.).

α2-adrenergic receptor = molecular target: T1, α2-adrenergic receptor (Rattus norvegicus, UniProt P22909); test: α2-Adrenergic receptor binding, [^3 H] clonidine, rat brain cortex membranes; conditions: 1 nM [^3 H] clonidine, 10 mM MgCl2, pH 7.4, 30 min, room temperature
T1 construct: from tissue; host or cells: rat brain cortex, P2 membranes
T1 sequence (P22909 1-465): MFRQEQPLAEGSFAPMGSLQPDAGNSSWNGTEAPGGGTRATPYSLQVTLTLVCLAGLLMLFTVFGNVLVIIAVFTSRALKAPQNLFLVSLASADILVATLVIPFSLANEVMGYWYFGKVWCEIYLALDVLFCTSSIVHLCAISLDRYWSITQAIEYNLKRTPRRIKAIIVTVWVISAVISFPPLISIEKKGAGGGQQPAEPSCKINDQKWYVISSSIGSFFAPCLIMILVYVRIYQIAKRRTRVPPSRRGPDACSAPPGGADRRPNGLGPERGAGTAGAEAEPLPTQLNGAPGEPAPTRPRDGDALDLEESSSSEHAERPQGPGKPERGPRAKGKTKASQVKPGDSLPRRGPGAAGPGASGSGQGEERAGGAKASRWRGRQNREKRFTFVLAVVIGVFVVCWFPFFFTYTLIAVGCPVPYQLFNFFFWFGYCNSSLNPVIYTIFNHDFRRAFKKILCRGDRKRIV
Experimental: as §1

[2] = Antihypertensive activity in anesthetized cats (blood pressure); format: in vivo, cat; conditions: pentobarbital-anesthetized cats
Experimental: The pharmacological activities of the compounds of the present invention are described in the following experiment. In this experiment, the test compounds used are as follows.
Adult cats of either sex, 2-3 Kg, anesthetized with pentobarbital sodium (30 mg/Kg i.p.) were used. The trachea was intubated to provide artificial respiration with air by means of a Harvard respirator (respiration rate=6-20/min and colume=40-50 ml/stroke). Both femoral artery and vein were cannulated with PE 150 to monitor blood pressure and for drug administration respectively. Body temperature was maintained at 37.5° C. with a heating pad and monitored with a rectal thermometer. Blood pressure was measured with a Statham P23D pressure transducer via a polyethylene cannula conducted to a right femoral artery. Heart rate was measured through a Grass Model 7B tachograph preamplifier triggered by the pulses of arterial blood pressure. All data were recorded on a Grass Model 7B polygraph.

| Ki (α1-Adrenergic receptor) [nM] | SMILES | MBP (2 hr) ([2]; dose 1 mg/Kg) [mmHg] | also measured |
| --- | --- | --- | --- |
|  | O=C(c1ccc(F)cc1)C1CCN(CCn2c(=S)[nH]c3ccccc3c2=O)CC1 [thioketanserin] |  | antihypertensive activity (in words), background art [1]: found to have antihypertensive activities |
| 48.9 ± 20.4 | COc1cccc(N2CCN(CC3CN=C4c5ccccc5N=C(SC)N43)CC2)c1 (stereo not drawn) [Example 7, 3-{4-[1-(3-methoxyphenyl)piperazinyl]}methyl-5-methylthio-2,3-dihydroimidazo[1,2-c]quinazoline] |  | Ki (α2-adrenergic receptor): 8360 ± 588 nM |
| 0.36 ± 0.05 | COc1ccccc1N1CCN(CC2CN=C3c4ccccc4N(C)C(=O)N32)CC1 (stereo not drawn) [Example 23, 3-{4-[1-(2-methoxyphenyl)piperazinyl]}methyl-6-methyl-2,3-dihydroimidazo[1,2-c]quinazolin-5(6H)-one] | 63 | MBP (2 hr) ([2]; dose 0.25 mg/Kg): 40 mmHg |
|  | CN1C(=O)N2C(=NCC2CN2CCN(c3ccccc3Cl)CC2)c2ccccc21 (stereo not drawn) [Example 22, 3-{4-[1-(2-chlorophenyl)piperazinyl]}methyl-6-methyl-2,3-dihydroimidazo[1,2-c]quinazolin-5(6H)-one] | 50 |  |
| 0.34 ± 0.06 | CSC1=Nc2ccccc2C2=NCC(CN3CCN(c4ccccc4Cl)CC3)N12 (stereo not drawn) [Example 9, 3-{4-[1-(2-chlorophenyl)piperazinyl]}methyl-5-methylthio-2,3-dihydroimidazo[1,2-c]quinazoline] | 30 | Ki (α2-adrenergic receptor): 180 ± 7 nM |
| 0.25 ± 0.06 | COc1ccccc1N1CCN(CCn2c(=O)[nH]c3ccccc3c2=O)CC1.Cl [SGB-1534, reference compound] |  | antihypertensive activity (in words), background art [1]: found to have antihypertensive activities |
| > 100 | COC1=Nc2ccccc2C2=NCC(CN3CCN(c4cccc(OC)c4)CC3)N12 (stereo not drawn) [Example 14, 3-{4-[1-(3-methoxyphenyl)piperazinyl]}methyl-5-methoxy-2,3-dihydroimidazo[1,2-c]quinazoline] |  |  |
| 0.45 ± 0.09 | COc1ccccc1N1CCN(CC2CN=C3c4ccccc4NC(=O)N32)CC1 (stereo not drawn) [Example 18, 3-{4-[1-(2-methoxyphenyl)piperazinyl]}methyl-2,3-dihydroimidazo[1,2-c]quinazolin-5(6H)-one] | 50 |  |
| 0.07 ± 0.007 | COC1=Nc2ccccc2C2=NCC(CN3CCN(c4ccccc4OC)CC3)N12 (stereo not drawn) [Example 12, 3-{4-[1-(2-Methoxyphenyl)piperazinyl]}methyl-5-methoxy-2,3-dihydroimidazo[1,2-c]quinazoline] |  |  |
| > 10 | CSC1=Nc2ccccc2C2=NCC(CN3CCN(c4ccccc4)CC3)N12 (stereo not drawn) [Example 5, 3-[4-(1-Phenyl)piperazinyl]methyl-5-methylthio-2,3-dihydroimidazo[1,2-c]quinazoline] |  |  |
| 0.54 ± 0.09 | COc1ccccc1N1CCN(CC2CN=C3c4ccccc4N=C(SC)N32)CC1 (stereo not drawn) [Example 6, 3-{4-[1-(2-methoxyphenyl)piperazinyl]}methyl-5-methylthio-2,3-dihydroimidazo[1,2-c]quinazoline] | 70 |  |
|  | O=C1Nc2ccccc2C2=NCC(CN3CCN(c4ccccc4)CC3)N12 (stereo not drawn) [Example 17, 3-(4-Phenyl-1-piperazinyl)-methyl-2,3-dihydroimidazo[1,2-c]quinazolin-5(6H)-one] |  | Ki (α2-adrenergic receptor): 962 ± 29 nM |
| 5.76 ± 0.48 | COc1cccc(N2CCN(CC3CN=C4c5ccccc5NC(=O)N43)CC2)c1 (stereo not drawn) [Example 19, 3-{4-[1-(3-methoxyphenyl)piperazinyl]}methyl-2,3-dihydroimidazo[1,2-c]-quinazolin-5(6H)-one] |  |  |
|  | COC1=Nc2ccccc2C2=NCC(CN3CCN(c4ccccc4Cl)CC3)N12 (stereo not drawn) [Example 16, 3-{4-[1-(2-chlorophenyl)piperazinyl]}methyl-5-methoxy-2,3-dihydroimidazo[1,2-c]quinazoline] | 23 |  |
| 0.58 ± 0.07 | O=C1Nc2ccccc2C2=NCC(CN3CCN(c4ccccc4Cl)CC3)N12 (stereo not drawn) [Example 21, 3-{4-[1-(2-chlorophenyl)piperazinyl]}methyl-2,3-dihydroimidazo[1,2-c]quinazolin-5(6H)-one] | 35 |  |

Reference: patent US5340814A, “3-substituted methyl-2,3-dihydroimidazo[1,2-C] quinazoline derivatives, the preparation and use thereof” (National Science Council, priority 1992, dated 1994)
